# Test results published in article PMC4774972, “Activity and Predicted Nephrotoxicity of Synthetic Antibiotics Based on Polymyxin B” (Journal of Medicinal Chemistry, 2016).
# Read-outs that look alike come from different tables or passages of the source. Bridge positions count the residues as written; N and C are the ends. Square brackets hold non-standard residues; d marks the D form. Peptide text beside a SMILES is read from it. * marks the point of attachment. Octanoyl = CCCCCCCC(=O)*; Dab = NCC[C@H](N)C(=O)O
# Legend:
# HepG2 cells = test: Cytotoxicity assay (resazurin assay); type: cell-based, human; conditions: 4000 cells/well, 24 h incubation with compound, fluorescence 560/590
# [1] = tested on: K. pneumoniae CI 138-16357-20362, PmxR; test: microbe, parasite or virus in culture; type: cell-based, Klebsiella pneumoniae
# [2] = tested on: K. pneumoniae CI Koprana 100650661:1, PmxR; test: microbe, parasite or virus in culture; type: cell-based, Klebsiella pneumoniae
# [3] = tested on: K. pneumoniae CI 138-16357-20362, PmxR; conditions: MIC K. pneumoniae CI 138-16357-20362, PmxR (µg/mL)
# [4] = tested on: P. aeruginosa PA9704, PmxR; conditions: MIC P. aeruginosa PA9704, PmxR (µg/mL)
# [5] = tested on: A. baumannii CI Ptyela 100734512:2, PmxR; conditions: MIC A. baumannii CI Ptyela 100734512:2, PmxR (µg/mL)
# [6] = tested on: P. aeruginosa FADDI-PA070, PmxR; conditions: MIC P. aeruginosa FADDI-PA070, PmxR (µg/mL)
# [7] = tested on: S. aureus ATCC 25923, MSSA; conditions: MIC S. aureus ATCC 25923, MSSA (µg/mL)
# [8] = tested on: K. pneumoniae CI Koprana 100650661:1, PmxR; conditions: MIC K. pneumoniae CI Koprana 100650661:1, PmxR (µg/mL)
# [9] = tested on: panel of predominantly G-ve bacteria; conditions: for most strains
# [10] = tested on: S. aureus ATCC 25923, MSSA; test: microbe, parasite or virus in culture; type: cell-based, Staphylococcus aureus
# [11] = tested on: A. baumannii CI Ptyela 100734512:2, PmxR; test: microbe, parasite or virus in culture; type: cell-based, Acinetobacter baumannii
# [12] = tested on: P. aeruginosa PA9704, PmxR; type: cell-based, Pseudomonas aeruginosa
# Experimental: (§1) Bacteria were either obtained from American Type Culture Collection (ATCC; Manassas, VA, USA) or independent academic clinical isolate collections, as listed in Table S2. Bacteria were cultured in nutrient broth (NB; Bacto Laboratories, catalog no. 234000) or Muller Hinton broth (MHB; Bacto Laboratories, catalog no. 211443) at 37 °C overnight with shaking (∼180 rpm). A sample of each culture was then diluted 50-fold in fresh MHB and incubated at 37 °C for 1.5–3 h with shaking (∼180 rpm). Compound stock solutions were prepared as 0.64 or 2.56 mg/mL in water. The compounds, at twice the final desired concentration, were serially diluted 2-fold across the wells of 96-well plates (Polystyrene, Corning, catalogue No. 3370). Mid log phase bacterial cultures (after 1.5–3 h incubation) were diluted to a final concentration of 5 × 10^5 colony forming units (CFU)/mL, and 50 μL was added to each well giving a final compound concentration range of 32 μg/mL to 0.015 μg/mL (128–0.06 μg/mL for colistin and polymyxin B against the polymyxin resistant clinical isolates). MICs were determined visually after 18 h of incubation at 37 °C, with the MIC defined as the lowest compound concentration at which no bacterial growth was visible.
# (§2) Table S2. Bacterial strains used for Minimum Inhibitory Concentration (MIC) […]
# (§3) Organism Strain Strain description Strain Source
# (§4) Escherichia coli ATCC 25922 FDA strain Seattle 1946 ATCC
# (§5) Klebsiella pneumoniae ATCC 13883 Control strain ATCC
# (§6) Klebsiella pneumoniae ATCC 700603 Multi-drug resistant ATCC
# (§7) Klebsiella pneumoniae BAA-2146 Metallo-beta-lactamase- ATCC
# (§8) Acinetobacter baumannii ATCC 19606 Type strain ATCC
# (§9) Pseudomonas aeruginosa ATCC 27853 Type strain ATCC
# (§10) Pseudomonas aeruginosa FADDI-PA070 Clinical isolate, Nation and Li labs, polymyxin resistant Monash University
# (§11) Clinical isolate, Wang Hengzhuang, Pseudomonas aeruginosa PA9704 polymyxin resistant University Hospital of […]
# (§12) Ptyela Clinical isolate, Ilias Karaiskos and Acinetobacter baumannii Carbapenem & Helen Giamarellou
# (§13) Clinical isolate, Medicine, Hygeia
# (§14) Klebsiella pneumoniae Koprana Carbapenem, & General Hospital, […]
# (§15) Clinical isolate, (Instituto Dante […]
# (§16) polymyxin resistant Cardiologia, São […]
# [13] = tested on: P. aeruginosa FADDI-PA070, PmxR; type: cell-based, Pseudomonas aeruginosa
# Experimental: as §1, §2, §3, §4, §5, §6, §7, §8, §9, §10, §11, §12, §13, §14, §15, §16
# [14] = tested on: primary human renal proximal tubule epithelial (hPT) cells; test: Nephrotoxicity assay, GGT release; type: cell-based
# Description: (§17) Primary human renal proximal tubule epithelial (hPT) cells were isolated and used for in vitro prediction of drug-induced nephrotoxicity[63],[64],[69] by measuring the release of metabolism enzymes, LDH and GGT, as previously described.[70]
# HepG2 = conditions: CC50 HepG2 (µM)
# HEK293 cells = test: Cytotoxicity assay (resazurin assay); type: cell-based, human; conditions: 4000 cells/well, 24 h incubation with compound, fluorescence 560/590
# K. pneumoniae ATCC 13883 = test: microbe, parasite or virus in culture; type: cell-based, Klebsiella pneumoniae; conditions: MHB, 5 × 10^5 CFU/mL, read visually after 18 h at 37 °C
# [15] = tested on: primary human renal proximal tubule epithelial (hPT) cells; test: Nephrotoxicity assay, LDH release; type: cell-based; conditions: primary human kidney cells
# Description: as §17
# E. coli ATCC 25922 = test: microbe, parasite or virus in culture; type: cell-based, Escherichia coli; conditions: Escherichia coli, ATCC25922, 18 h, MHB, 5 × 10^5 CFU/mL, read visually after 18 h at 37 °C
# Experimental: as §1, §2, §3, §4, §5, §6, §7, §8, §9, §10, §11, §12, §13, §14, §15, §16
# P. aeruginosa ATCC 27853 = test: microbe, parasite or virus in culture; type: cell-based, Pseudomonas aeruginosa; conditions: MHB, 5 × 10^5 CFU/mL, read visually after 18 h at 37 °C
# Experimental: as §1, §2, §3, §4, §5, §6, §7, §8, §9, §10, §11, §12, §13, §14, §15, §16
# A. baumannii ATCC 19606 = type: cell-based, Acinetobacter baumannii; conditions: MHB, 5 × 10^5 CFU/mL, read visually after 18 h at 37 °C
# Experimental: as §1, §2, §3, §4, §5, §6, §7, §8, §9, §10, §11, §12, §13, §14, §15, §16
# [16] = tested on: K. pneumoniae ATTC BAA-2146, NDM-1 pos; type: cell-based, Klebsiella pneumoniae; conditions: MHB, 5 × 10^5 CFU/mL, read visually after 18 h at 37 °C
# Experimental: as §1, §2, §3, §4, §5, §6, §7, §8, §9, §10, §11, §12, §13, §14, §15, §16
# [17] = tested on: K. pneumoniae ATCC 700603, MDR; type: cell-based, Klebsiella pneumoniae; conditions: MHB, 5 × 10^5 CFU/mL, read visually after 18 h at 37 °C
# Experimental: as §1, §2, §3, §4, §5, §6, §7, §8, §9, §10, §11, §12, §13, §14, §15, §16
# [18] = Klebsiella pneumoniae, carbapenem & polymyxin resistant clinical isolate, MHB, 5 × 10^5 CFU/mL, 18 h at 37 °C
# [19] = carbapenem & polymyxin resistant clinical isolate, MHB, 5 × 10^5 CFU/mL, 18 h at 37 °C
# [20] = polymyxin resistant clinical isolate, MHB, 5 × 10^5 CFU/mL, 18 h at 37 °C
smiles,measurement,setting,value
CCCCCCCC(=O)N[C@@H](CCN)C(=O)N[C@H](C(=O)NCC(=O)N[C@H]1CCNC(=O)[C@H]([C@@H](C)O)NC(=O)[C@H](CCN)NC(=O)[C@H](CCN)NC(=O)[C@H](CC(C)C)NC(=O)[C@@H](Cc2ccccc2)NC(=O)[C@H](CCN)NC1=O)[C@@H](C)O [Compound 38] (Octanoyl-[Dab]TG[Dab][Dab][dF]L[Dab][Dab]T; lactam 4-C),HepG2 - CC50,HepG2 cells,> 300 µM
same,"MIC K. pneumoniae CI 138-16357-20362, PmxR","[1]; CI 138-16357-20362, PmxR, 18 h",>32 µg/mL
same,"MIC K. pneumoniae CI Koprana 100650661:1, PmxR","[2]; CI Koprana 100650661:1, PmxR, 18 h",>32 µg/mL
same,MIC,[3],> 32 µg/mL
same,MIC,[4],> 32 µg/mL
same,MIC,[5],> 32 µg/mL
same,MIC,[6],> 32 µg/mL
same,MIC,[7],> 64 µg/mL
same,MIC,[8],> 32 µg/mL
same,MIC among the reference strains,[9],0.5 to 2 µg/mL
same,"MIC S. aureus ATCC 25923, MSSA","[10]; ATCC 25923, 18 h",>64 µg/mL
same,"MIC A. baumannii CI Ptyela 100734512:2, PmxR","[11]; CI Ptyela 100734512:2, PmxR, 18 h",>32 µg/mL
same,"MIC P. aeruginosa PA9704, PmxR","[12]; PA9704, PmxR, 18 h",>32 µg/mL
same,"MIC P. aeruginosa FADDI-PA070, PmxR","[13]; FADDI-PA070, PmxR, 18 h",>32 µg/mL
same,GGT release CC50,[14],>128 µg/mL
same,CC50,HepG2,> 300 µM
"CNC(C)C1CCC(N)C(OC2C(N)CC(N)C(OC3OCC(C)(O)C(NC)C3O)C2O)O1 (centres unmarked) [Gentamicin, reference compound]",HEK293 CC50,HEK293 cells,>300 µM
same,HepG2 - CC50,HepG2 cells,>300 µM
same,MIC,[1]; [18],1 µg/mL
same,MIC,"K. pneumoniae ATCC 13883; Klebsiella pneumoniae, ATCC13883",0.25 µg/mL
same,MIC,[2]; [18],> 32 µg/mL
same,LDH release CC50,[15],33 µg/mL
same,MIC,"[11]; Acinetobacter baumannii, carbapenem & polymyxin resistant clinical isolate, MHB, 5 × 10^5 CFU/mL, 18 h at 37 °C",> 32 µg/mL
same,MIC,E. coli ATCC 25922,0.25 µg/mL
same,GGT release CC50,[14]; primary human kidney cells,33 µg/mL
same,MIC,"P. aeruginosa ATCC 27853; Pseudomonas aeruginosa, ATCC27853",1 µg/mL
"CC[C@H](C)CCCCC(=O)N[C@@H](CCN)C(=O)N[C@H](C(=O)N[C@@H](CCN)C(=O)N[C@H]1CCNC(=O)[C@H]([C@@H](C)O)NC(=O)[C@H](CCN)NC(=O)[C@H](CCN)NC(=O)[C@H](CC(C)C)NC(=O)[C@@H](Cc2ccccc2)NC(=O)[C@H](CCN)NC1=O)[C@@H](C)O [Polymyxin B 1, polymyxin B]",MIC A. baumannii ATCC 19606,A. baumannii ATCC 19606,0.25 µg/mL
same,HEK293 CC50,HEK293 cells,>300 µM
same,HepG2 - CC50,HepG2 cells,>300 µM
same,"MIC K. pneumoniae ATTC BAA-2146, NDM-1 pos",[16],0.25 µg/mL
same,"MIC K. pneumoniae ATCC 700603, MDR",[17],0.5 µg/mL
same,"MIC K. pneumoniae CI 138-16357-20362, PmxR",[1]; [19],64 µg/mL
same,MIC K. pneumoniae ATCC 13883,K. pneumoniae ATCC 13883,1 µg/mL
same,"MIC K. pneumoniae CI Koprana 100650661:1, PmxR",[2]; [19],64 µg/mL
same,"MIC S. aureus ATCC 25923, MSSA","[10]; MHB, 5 × 10^5 CFU/mL, read visually after 18 h at 37 °C",>64 µg/mL
same,LDH release CC50,[15],23 µg/mL
same,"MIC A. baumannii CI Ptyela 100734512:2, PmxR",[11]; [19],64 µg/mL
same,"MIC P. aeruginosa PA9704, PmxR",[12]; [20],128 µg/mL
same,"MIC P. aeruginosa FADDI-PA070, PmxR",[13]; [20],32 µg/mL
same,GGT release CC50,[14]; primary human kidney cells,177 µg/mL
same,MIC P. aeruginosa ATCC 27853,P. aeruginosa ATCC 27853,0.5 µg/mL
